Test results published in patent US9861712B2, “Preparation of extremely small and uniform sized, iron oxide-based paramagnetic or pseudo-paramagnetic nanoparticles and MRI T1 contrast agents using the same” (Hanwha Chemical Corporation, priority 2010, dated 2018).

System: rats
Test: In vivo MR imaging (dynamic time-resolved MR angiography, 3d-FLASH) of blood vessels
Description: Dynamic time-resolved MR angiography and 3d-FLASH images of rats were acquired using a wrist coil on a 3 T MRI scanner before and after the injection of 3 nm iron oxide nanoparticles capped by PO-PEG, prepared according to example 13 (dose: 2.5 mg Fe/kg). The pre-contrast images were subtracted from post-contrast images, and the resulting images were reconstructed using maximum intensity projection (MIP) protocol with OsriX (Version 3.8.1; 32 bit; OsiriX foundation, Geneva). Dynamic time-resolved MR angiography was obtained with an interpolated temporal resolution of 1.25 second and the following parameters: flip angle=20, ETL=1, TR=3.1 ms, TE=1.13 ms, field of view FOV=75×140 mm^2, matrix=256×106, slice thickness/gap=2.5 mm/0 mm, and NEX=1. The imaging parameters of 3d-FLASH are as follows: flip angle=25, ETL=1, TR=25 ms, TE=5.1 ms, field of view FOV=110×65 mm^2, matrix=256×169, slice thickness/gap=1.0 mm/0 mm, and NEX=2.
MR imaging using the 3 nm nanoparticles capped by glucose 6-phosphate was performed according to example 16.

## O=C([O-])CN1CCN(CC(=O)[O-])CCN([C@H](CO)[C@H](O)CO)CCN(CC(=O)[O-])CC1.[Gd+3] (racemic) [Gadovist]
Immediately after the injection
  contrast effect of in vivo MR image immediately after the injection: high contrast effect
In vivo MR image after injection
  time in which the bright signal vanished: 2 min
In words
  blood half-life: short blood half-life
